The values that follow are results of earlier work, collected in patent publication US20020009704A1, “Oocyte vitrification technique” (priority 2000, published 2002).

The data set has as its system bovine oocytes.

The structures appear in SMILES notation.

Take `OCCO` [ethylene glycol]: the “toxicity for bovine oocytes” value is given as “relatively low toxicity”.
